Tests used:
Type in all cases: cell-based, human
[1] = test system: NEDL1 gene expression in SH-SY5Y cells; assay: Expression analysis by RT-PCR in cisplatin treated SH-SY5Y cells; settings: cisplatin 20 μM, total RNA
Description: The RT-PCR, Western blotting, immunoprecipitation, luciferase reporter assay and cell fractionation were performed according to the procedure described in Ando et al., J. Biol. Chem., 279: 25549-25561, 2004. Colony formation was performed according to the procedure described in Ozaki et al., Cancer Res., 59: 5902-5907, 1999.
Under the same conditions as in Example 1, SH-SY5Y cells were treated with cisplatin and cells were recovered at a prescribed time point, after which the total RNA was extracted and expression of the NEDL1, NEDL2, NEDD4, p21^WAF1 and p53 genes was analyzed by RT-PCR. GAPDH was used as an expression level control.

[2] = test system: p21WAF1, phosphorylated p53, p53 and NEDL1 protein expression in SH-SY5Y cells; assay: Expression analysis by Western blotting in cisplatin treated SH-SY5Y cells; settings: cisplatin 20 μM, total protein
Description: The RT-PCR, Western blotting, immunoprecipitation, luciferase reporter assay and cell fractionation were performed according to the procedure described in Ando et al., J. Biol. Chem., 279: 25549-25561, 2004. Colony formation was performed according to the procedure described in Ozaki et al., Cancer Res., 59: 5902-5907, 1999. Under the same conditions as in Example 1, SH-SY5Y cells were treated with cisplatin and cells were recovered at a prescribed time point, after which the total protein was extracted and the expression of p21^WAF1, phosphorylated p53 (p53 (Ser 15)), p53 and NEDL1 was analyzed by Western blotting. Actin was used as an expression level control.

SH-SY5Y cells = assay: Apoptosis of SH-SY5Y cells by cisplatin treatment (TUNEL staining); settings: cisplatin final concentration 20 μM
Description: SH-SY5Y cells were cultured in the presence of cisplatin (final concentration: 20 μM). The cells were fixed with paraformaldehyde at prescribed time points after the start of culturing and subjected to TUNEL staining, and the TUNEL-positive cells were counted. […] The extent of cell death by cisplatin was detected.

N.N.[Cl][Pt][Cl] [cisplatin]
Expression of NEDL1 (RT-PCR) [1]: induced
Expression of NEDL1 (Western blotting) [2]: induced
Expression of p21WAF1 (Western blotting) [2]: induced
Expression of p53 (Western blotting) [2]: induced
Expression of phosphorylated p53 (p53 (Ser 15)) (Western blotting) [2]: induced
cell death (TUNEL-positive cells) (SH-SY5Y cells): detected
